What was measured:
[1] = biological target: T1, PPARG/RXRA LBD heterodimer (Homo sapiens, UniProt P37231); assay: PPARγ-MED1 blockade assay (TR-FRET); format: biochemical; conditions: for EC50: TR-FRET, MED1 LxxLL peptide, 80 nM Rosiglitazone, 3 hours; for Emax: maximal extent, GW9662 defined as 100%, DMSO 0%, read-out: % MED1 blockade relative to GW9662
T1 construct: His-TEV-Q203-Y477; Uniprot ID P37231-2; made in house; host or cells: E. coli
T1 sequence (P37231 203-477 isoform P37231-2): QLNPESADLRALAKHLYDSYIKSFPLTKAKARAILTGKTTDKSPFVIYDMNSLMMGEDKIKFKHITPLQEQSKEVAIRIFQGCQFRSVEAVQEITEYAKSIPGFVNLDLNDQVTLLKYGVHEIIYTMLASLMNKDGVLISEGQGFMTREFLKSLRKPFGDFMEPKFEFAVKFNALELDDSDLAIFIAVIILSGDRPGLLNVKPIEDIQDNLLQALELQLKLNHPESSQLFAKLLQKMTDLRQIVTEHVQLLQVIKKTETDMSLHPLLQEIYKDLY
T1 sequence (P19793 228-462 partner limits assumed): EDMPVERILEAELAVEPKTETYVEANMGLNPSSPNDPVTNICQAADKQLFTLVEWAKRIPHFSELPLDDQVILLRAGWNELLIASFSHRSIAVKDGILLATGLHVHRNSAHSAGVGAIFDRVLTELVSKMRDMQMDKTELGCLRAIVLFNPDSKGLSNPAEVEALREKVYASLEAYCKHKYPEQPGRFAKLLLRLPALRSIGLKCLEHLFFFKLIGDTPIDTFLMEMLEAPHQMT
Description: Compound potency (IC50) and maximal extent of MED1 repulsion to PPARG were assessed a TR-FRET binding assay measuring association of a biotinylated MED1 LxxLL peptide (Biotin-[…]-amide) to PPARG/RXRA LBD heterodimer.

[2] = test system: ANGPTL4, a PPARG target gene, in HT1197 (RXRA S427F mutation) cells; assay: Bladder cancer pharmacodynamic assay, HT1197 cell assay (qPCR of PPARG target gene ANGPTL4); format: cell-based; conditions: Homo sapiens; for inhibition at 0.1 µM: read-out: % inhibition of ANGPTL4 @ 100 nM, 100 nM compound, 24 hours, relative to DMSO control; for EC50: 24 hours treatment, qPCR
Description: Quantitative PCR was performed using an ABI QuantStudio 7 Flex Reaction system. Data were analyzed and reported relative to DMSO control using the comparative Ct method (ΔΔCt).

[3] = biological target: T2, PPARG/RXRA LBD heterodimer (Homo sapiens, UniProt P37231); assay: PPARγ-NCOR1 recruitment assay (TR-FRET); format: biochemical; conditions: for Emax: 3 h, maximal extent, T0070907 defined as 100%, DMSO 0%, read-out: % NCOR recruitment relative to T907; for EC50: TR-FRET, NCOR1 ID2 peptide, 80 nM Rosiglitazone, 3 hours, read-out: PPARG-NCOR recruitment assay EC50
T2 construct: 2 nM WT PPARG LBD (E. coli expressed, His-TEV-Q203-Y477); fused on or other part: N-terminal His tag with TEV site on the PPARG LBD
Description: Compound potency (EC50) and maximal extent of NCOR1 recruitment to PPARG were assessed a TR-FRET binding assay measuring association of a biotinylated NCOR1 ID2 peptide (Biotin-[…]-amide) to PPARG/RXRA LBD heterodimer.
T2 sequence (O75376 2251-2273 limits assumed, one chain of several, further chain): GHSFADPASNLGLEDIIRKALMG

| SMILES | EC50 [1] | Emax [1] | Emax [3] | EC50 [3] | EC50 [2] | inhibition at 0.1 µM [2] |
| --- | --- | --- | --- | --- | --- | --- |
| CN(C)C(=O)[C@H]1CCCN(c2c(F)cc3[nH]c(-c4cc(C#N)ncc4S(C)(=O)=O)cc(=O)c3c2F)C1 (single isomer, unassigned) [Example 34] | < 10 nM | > 100% | > 100% | < 10 nM |  | 87% |
| N#Cc1ccc(Cl)c(-c2cc(=O)c3cc(F)c(F)cc3[nH]2)n1 [Example 1, 5-chloro-6-(6,7-difluoro-4-oxo-1,4-dihydroquinolin-2-yl)picolinonitrile] | 10 to 100 nM | > 100% | > 100% | 10 to 100 nM |  | 91% |
| N#Cc1ccc(Cl)c(-c2cc(=O)c3c(F)cc(F)cc3[nH]2)n1 [Example 3, 5-chloro-6-(5,7-difluoro-4-oxo-1,4-dihydroquinolin-2-yl)picolinonitrile] | < 10 nM | > 100% | > 100% | < 10 nM | 0.09 nM | 95% |
| N#Cc1cc(-c2cc(=O)c3ccc(Cl)cc3[nH]2)c(Cl)cn1 [Example 4, 5-chloro-4-(7-chloro-4-oxo-1,4-dihydroquinolin-2-yl)picolinonitrile] | < 10 nM | > 100% | > 100% | < 10 nM |  | 88% |
| N#Cc1ccc(Cl)c(-c2cc(=O)c3ccccc3[nH]2)n1 [Example 5, 5-chloro-6-(4-oxo-1,4-dihydroquinolin-2-yl)picolinonitrile] | 10 to 100 nM | > 100% | < 100% | 10 to 100 nM |  | 71% |
| N#Cc1ccc(Cl)c(-c2cc(=O)c3ccc(Cl)cc3[nH]2)n1 [Example 6, 5-chloro-6-(7-chloro-4-oxo-1,4-dihydroquinolin-2-yl)picolinonitrile] | < 10 nM | > 100% | > 100% | < 10 nM |  | 73% |
| COc1ccc(C#N)nc1-c1cc(=O)c2c(F)cc(F)cc2[nH]1 [Example 7, 6-(5,7-difluoro-4-oxo-1,4-dihydroquinolin-2-yl)-5-methoxypicolinonitrile] | > 10000 nM | > 100% | > 100% | > 10000 nM |  | 23% |
| CSc1ccc(C#N)nc1-c1cc(=O)c2c(F)cc(F)cc2[nH]1 [Example 8, 6-(5,7-difluoro-4-oxo-1,4-dihydroquinolin-2-yl)-5-(methylthio)picolinonitrile] | > 10000 nM | > 100% | > 100% | > 10000 nM |  |  |
| COc1cnc(C#N)cc1-c1cc(=O)c2c(F)cc(F)cc2[nH]1 [Example 9, 4-(5,7-difluoro-4-oxo-1,4-dihydroquinolin-2-yl)-5-methoxypicolinonitrile] | 100 to 1000 nM | > 100% | < 100% | 100 to 1000 nM |  | 22% |
| CN(C)CCOc1cnc(C#N)cc1-c1cc(=O)c2c(F)cc(F)cc2[nH]1 [Example 11, 4-(5,7-difluoro-4-oxo-1,4-dihydroquinolin-2-yl)-5-(2-(dimethylamino)-ethoxy)-picolinonitrile] | 1000 to 10000 nM | > 100% | > 100% | 1000 to 10000 nM |  | 58% |
| CCSc1cnc(C#N)cc1-c1cc(=O)c2c(F)cc(F)cc2[nH]1 [Example 12, 4-(5,7-difluoro-4-oxo-1,4-dihydroquinolin-2-yl)-5-(ethylthio)picolinonitrile] | > 10000 nM | < 100% | < 100% | > 10000 nM |  | 18% |
| CS(=O)(=O)c1cnc(C#N)cc1-c1cc(=O)c2c(F)cc(F)cc2[nH]1 [Example 29, 4-(5,7-difluoro-4-oxo-1,4-dihydroquinolin-2-yl)-5-(methylsulfonyl)picolinonitrile] |  |  |  |  | 0.49 nM | 90% |

Second part, led by results:

| EC50 [1] | Emax [1] | Emax [3] | EC50 [3] | EC50 [2] | SMILES | inhibition at 0.1 µM [2] |
| --- | --- | --- | --- | --- | --- | --- |
| < 10 nM | > 100% | > 100% | < 10 nM | 0.14 nM | N#Cc1cc(-c2cc(=O)c3c(F)cc(F)cc3[nH]2)c(Cl)cn1 [Example 2, 5-chloro-4-(5,7-difluoro-4-oxo-1,4-dihydroquinolin-2-yl)picolinonitrile] | 91% |
| 10 to 100 nM | > 100% | > 100% | 10 to 100 nM |  | CN1CCN(c2c(F)cc3[nH]c(-c4nc(C#N)ccc4Cl)cc(=O)c3c2F)CC1 [Example 13, 5-chloro-6-(5,7-difluoro-6-(4-methylpiperazin-1-yl)-4-oxo-1,4-dihydroquinolin-2-yl)picolinonitrile] | 78% |
| 10 to 100 nM | > 100% | > 100% | 10 to 100 nM |  | CN1CCN(c2cc3c(=O)cc(-c4cc(C#N)ncc4Cl)[nH]c3cc2Cl)CC1 [Example 14, 5-chloro-4-(7-chloro-6-(4-methylpiperazin-1-yl)-4-oxo-1,4-dihydroquinolin-2-yl)picolinonitrile] | 88% |
| 10 to 100 nM | > 100% | > 100% | 10 to 100 nM | 3.1 nM | CN1CCN(c2c(F)cc3[nH]c(-c4cc(C#N)ncc4Cl)cc(=O)c3c2F)CC1 [Example 15, 5-chloro-4-(5,7-difluoro-6-(4-methylpiperazin-1-yl)-4-oxo-1,4-dihydroquinolin-2-yl)picolinonitrile] | 81% |
| 10 to 100 nM | > 100% | > 100% | 10 to 100 nM |  | CN1CCC(c2c(F)cc3[nH]c(-c4nc(C#N)ccc4Cl)cc(=O)c3c2F)CC1 [Example 16, 5-chloro-6-(5,7-difluoro-6-(1-methylpiperidin-4-yl)-4-oxo-1,4-dihydroquinolin-2-yl)picolinonitrile] | 85% |
| 10 to 100 nM | > 100% | > 100% | 10 to 100 nM |  | N#Cc1ccc(Cl)c(-c2cc(=O)c3c(F)c(N4CCS(=O)(=O)CC4)c(F)cc3[nH]2)n1 [Example 17, 5-chloro-6-(6-(1,1-dioxidothiomorpholino)-5,7-difluoro-4-oxo-1,4-dihydroquinolin-2-yl)picolinonitrile] | 78% |
| 10 to 100 nM | > 100% | > 100% | 10 to 100 nM |  | N#Cc1cc(-c2cc(=O)c3c(F)c(N4CCS(=O)(=O)CC4)c(F)cc3[nH]2)c(Cl)cn1 [Example 18, 5-chloro-4-(6-(1,1-dioxidothiomorpholino)-5,7-difluoro-4-oxo-1,4-dihydroquinolin-2-yl)picolinonitrile] | 57% |
| 10 to 100 nM | > 100% | > 100% | 10 to 100 nM |  | CN(C)C(=O)C1CCN(c2c(F)cc3[nH]c(-c4cc(C#N)ncc4Cl)cc(=O)c3c2F)CC1 [Example 19, 1-(2-(5-chloro-2-cyanopyridin-4-yl)-5,7-difluoro-4-oxo-1,4-dihydroquinolin-6-yl)-N,N-dimethylpiperidine-4-carboxamide] | 84% |
| 10 to 100 nM | > 100% | > 100% | 10 to 100 nM |  | CN1CCC(c2c(F)cc3[nH]c(-c4cc(C#N)ncc4Cl)cc(=O)c3c2F)CC1 [Example 20, 5-chloro-4-(5,7-difluoro-6-(1-methylpiperidin-4-yl)-4-oxo-1,4-dihydroquinolin-2-yl)picolinonitrile] | 80% |
| < 10 nM | > 100% | > 100% | < 10 nM |  | CN(C)C(=O)N1CCN(c2c(F)cc3[nH]c(-c4cc(C#N)ncc4Cl)cc(=O)c3c2F)CC1 [Example 21, 4-(2-(5-chloro-2-cyanopyridin-4-yl)-5,7-difluoro-4-oxo-1,4-dihydroquinolin-6-yl)-N,N-dimethylpiperazine-1-carboxamide] | 81% |

Reference: patent US20250122169A1, “PPARG INVERSE AGONISTS AND USES THEREOF” (Flare Therapeutics Inc., priority 2021, published 2025)
